In patent US20100240656A1, “COMPOUNDS AS HSP90 INHIBITORS” (ORYZON GENOMICS, S.A., priority 2007, published 2010):

Experiments:
Hsp90α = target: T1, Hsp90α (Homo sapiens, UniProt P07900); experiment: Human Hsp90α fluorescence polarization competition assay with Example 37 tracer; settings: displacement of 50 nM example 37 tracer, 125 nM Hsp90α, 1 h 30 min, 20° C.; read-out: Relative binding affinity values (IC50) obtained from FP measurements
T1 construct: purchased Stressgen Bioreagents SPP-776
Description: The aim of this study was to determine the binding ability of compounds of the invention to the N-terminal ATP binding site of Hsp90. For that purpose competition assays with fluorescently labeled Hsp90 binders were used (compounds of examples 37 and 41).
Compounds of examples 37 and 41 are structurally based on 8-(6-Iodo-benzo[1,3]dioxol-5-ylsulfanyl)-9-(3-isopropylamino-propyl)-9H-purin-6-ylamine, a known binder of the N-terminal ATP binding site of Hsp90 which has the ability of inhibiting the Hsp90 function (cf. Chiosis G. et al. “Identification of Potent Water Soluble Purine-Scaffold Inhibitors of the Heat Shock Protein 90”, J. Med. Chem., 2006, vol. 49, no. 1, p. 381). Compounds 37 and 41 keep the essential structural features of the known binder (which means that said compounds are able to bind to the ATP binding site) and incorporate a fluorescent probe which allows the detection of the binding by fluorescence polarization.
When the binders of examples 37 and 41 are used in the competition assay, in a first step said binders are allowed to interact with the N-terminal ATP binding site of Hsp90. Then the compounds of the invention are added and it is determined if they are able to bind to the N-terminal ATP binding site (which will imply that the binders of examples 37 and 41 have been replaced from the N-terminal ATP binding site). If after performing the assay, the binding between the tested compound of the invention and the Hsp90 is observed, this will be indicative that the compound of the invention has been bound to the ATP binding site of Hsp90 and, therefore, can inhibit the Hsp90.
Once compounds of examples 37 and 41 were synthesized as reported above, they were dissolved at 238 μM and 1 mM in DMSO respectively (Sigma-Aldrich, cat. No. 154938). Hsp90α was purchased from Stressgen Bioreagents (cat. No. SPP-776; Victoria, Canada). The assay buffer contained 100 mM Tris·HCl, pH 7.4, 20 mM KCl, 6 mM MgCl2. Before each use 5 μg/mL bovine serum albumin (BSA, Pierce, Rockford (Ill.), cat No. 23209), 0.25 mM TCEP (Sigma, cat No. 64706) and 0.01% NP40 (Nonidet P40 Substitute, Fluka, cat No. 74385) were freshly added (cf. Howes et al., “A fluorescence polarization assay for inhibitors of Hsp90”, Analytical Biochemistry, 2006, vol. 350, p. 202-213; Kim et al., “Development of a fluorescence polarization assay for the molecular chaperone Hsp90”, J. Biomol. Screen., 2004, vol. 9 (5)).
Fluorescence polarization measurements were performed on an Infinite F200 (Tecan, Austria). Measurements were taken in black 96-well microplates (Corning Costar No. 3650) in which both the excitation and the emission occurred from the top of the wells. In the Infinite F200, a xenon arc lamp provides excitation light that passes through a 485 nm (20-nm bandwidth) excitation filter and then a polarizer filter. A beam splitter filter directs the polarized excitation light into the well, and emitted fluorescence transmits back through the same beam-splitter filter, through a polarizer filter, and then through a 535 nm (25-nm bandwidth) emission filter for detection (Kim et al., supra). The read time per well was 20 μs, and the number of reads per well was 25.
Compounds were assayed over a three-fold dilution series in a 96-well plate format to determine IC50 values. The serial dilution was performed in a separate 96-well plate (Thermowell 96 well PCR plate, Non-Treated Polypropylene, Corning Costar No. 6551) at 50 times final assay concentration in DMSO. (Howes et al, supra). 2 μl of compound was transferred to a black 96-well plate (Corning Costar No. 3650) and 98 μL of reaction solution (100 mM Tris·HCl, pH 7.4, 20 mM KCl, 6 mM MgCl2, 5 μg/mL bovine serum albumin (BSA), 0.25 mM TCEP, 0.01% NP40, 50 nM the compound of example 37, 125 nM Hsp90α) was added per well. The plate was allowed to equilibrate for 1 h 30 min on a slow moving shaker at 20° C. in the dark. […]

MCF-7 = experiment: Cell proliferation by MTT method, MCF-7; format: cell-based; settings: Homo sapiens
Procedure: The objective of this study was to determine the influence of the compounds on cell proliferation of K-562, A-549, MCF-7, HeLa, WI-38 by MTT method. The compounds were tested over a three-fold dilution series in triplicate for the determination of EC50 of their influence on cell proliferation.
The assay is based on the cleavage of the yellow tetrazolium salt MTT into purple formazan by metabolically active cells. The MTT formazan crystals are insoluble in aqueous solution, but may be solubilized by adding the 10% SDS, then incubating the plates overnight in a humidified atmosphere (e.g., 37° C., 5% CO2). The solubilized formazan product can be photometrically quantitated using Tecan reader. An increase in the number of living cells results in an increase of total metabolic activity, which leads to a stronger color formation.
EC50 values are defined as the compound concentration at which 50% of reaction product is formed.
Test compounds were dissolved to 10 mM in 100% DMSO.
In the day of the experiment cells were seeded into all wells of 96-well plates. Serial dilution of compounds was performed in a separate 96-well plate at 20 times final assay concentration in cell culture medium (DMEM with 10% Fetal Bovine Serum). 5 μl of compound was transferred to 96-well plate containing seeded cells in cell culture medium (final total volume=100 μl). Cells were cultured in the presence of the respective test substances in the 96-well plate at 37° C. in a humidified 5% CO2 incubator for a certain period of time (24, 72 or 120 hours). Then 5 μL of thiazolyl blue tetrazolium bromide (MTT) 5 mg/mL was added to the cells and the cells were reincubated 4 hours in a humidified 5% CO2 incubator. Then 10% SDS was added into the each well. The reaction product was quantified by measuring the absorbance at 568 nm using a scanning multiwell spectrophotometer Tecan. The developed color and thereby the absorbance values directly correlate to the number of the living cells.
The data were analyzed using Microsoft Excel 2000, GraphPad Prism 3.03.
K 562 (human, chronic myelongenous leukemia), A 549 (human, lung carcinoma), MCF-7 (human, breast adenocarcinoma), Hela (human, cervix, carcinoma, epitheloid), WI-38 (human, embryonic lung)

[1] = MCF7, 24 h, MCF-7, incubation 1 day
[2] = MCF7, 72 h, MCF-7, incubation 3 days
[3] = MCF7, 120 h, MCF-7, incubation 5 days

Row | IC50 (Hsp90α) [µM] | EC50 (MCF-7; [1]) [µM] | EC50 (MCF-7; [2]) [µM] | EC50 (MCF-7; [3]) [µM] | SMILES
1 | 1.7 | > 100 | 10.1 | 11.7 | CCCCn1c(Sc2cc3c(cc2I)OCO3)nc(C(N)=O)c1N [Example 10, 5-amino-1-butyl-2-(6-iodo-benzo[1,3]dioxol-5-ylsulfanyl)-1H-imidazole-4-carboxamide]
2 | 0.88 | > 100 | 17.3 | 16.7 | NCCCCCn1c(Sc2cc3c(cc2I)OCO3)nc(C(N)=O)c1N [Example 6, 5-amino-1-(5-amino-pentyl)-2-(6-iodo-benzo[1,3]dioxol-5-ylsulfanyl)-1H-imidazole-4-carboxamide]
